For one series, the system named is HCV. The experiment in a line: microbe, parasite or virus in culture. The format is cell-based. The settings on record: Hepatitis C virus, read-out: antiviral activity EC50.
In another series the test system is HCV RNA replication. In words: Subgenomic HCV replicon assay (influence on replication). The class given is cell-based, Hepatitis C virus. The settings on record: subgenomic HCV replicon system, at non-toxic concentrations, FIG. 2. The protocol:
Haprolid has been identified as a potent inhibitor of HCV. Experiments confirmed its antiviral activity at nanomolar concentrations (EC50<6 nM) with toxicity in low micromolar ranges (TC50˜0.1 μM) (FIG. 1). […] Employing HCVTCP, influences on HCV RNA replication and virus entry are quantified.

Another series has as its system infectious HCV particles. The experiment in a line: Influence on assembly and/or release of infectious HCV particles. The class given is cell-based, Hepatitis C virus. An excerpt:
(§1) Moreover, an influence of the compound on the steps leading to assembly and release of infectious HCV particles has been shown. Total production of infectious virus particles was reduced about 3-fold (FIG. 5c). […] However, this was not caused by an influence of the drug on lipoprotein secretion (ApoB/E, FIG. 6), on which HCV secretion strongly depends, nor a general influence on the secretory capacity of the cell as shown for albumin (FIG. 6).
FIGS. 5a-c show the influence on assembly and/or release.

Series [1] has as its system lipoprotein secretion (ApoB/E), albumin. The experiment in a line: Secretion of lipoproteins (ApoB/E) or albumin. The format is cell-based. The note with it: FIG. 6.
Excerpt: as §1

A further series deals with HCVTCP. In words: Preincubation experiment in the context of HCV TCP infection. The class given is cell-based, Hepatitis C virus. The settings on record: HCVTCP system, FIG. 3.
Series [2] deals with retroviral particles pseudotyped with the glycoproteins of either HCV, VSV or MLV.
Series [3] has as its system Huh7-Lunet-hCD81-Gluc cells. In words: Cell viability by G-Luc activity in the whole life cycle assay. The settings on record: FIG. 1.

Structures are written as SMILES.

For `COC(C)CCCC1CC/C(C)=C\CC(=O)NC(Cc2ccccc2)C(=O)N(C)CC(=O)N(C)C(CC(C)C)C(=O)N2CCCC2C(=O)O1` (stereo not drawn) [Haprolid], the half-maximal effective concentration (EC50) in the series with HCV is less than 6 nM. In the series with HCV RNA replication, the “reduction of HCV RNA replication” value is 5 fold. The “reduction of intracellular virus titer” value with infectious HCV particles (FIG. 5a) is given as 100 fold. Moreover, the “reduction of total production of infectious virus particles” value in the series on infectious HCV particles (FIG. 5c) is “about 3 fold”. Further, in series [1], the “influence on secretion of albumin” value was “no influence” and the “influence on secretion of lipoproteins (ApoB/E)” value is given as “no influence”. The “effect of preincubation of cells or of virus compared with addition of compound during infection” value in the series on HCVTCP is reported as “only preincubation of the cells, but not of the virus resulted in a comparable effect”. The “decrease of infectivity of pseudotyped retroviral particles” value in series [2] was 100-1000 fold. In series [3], the “toxicity TC50” value is roughly 100 nM.
